Molecular target: T1, GABA A receptor α5β3γ2 (Homo sapiens, UniProt P18507+P31644)
T1 construct: expressed in transfected cells; host or cells: HEK293 (transiently transfected; membranes)
Experiment: [3H]flumazenil competition binding, membranes of HEK293 cells expressing human GABA A α5β3γ2
Settings: human α5β3γ2 in HEK293 (transiently transfected); 0.5 nM [3H]flumazenil; 1 hour at 4° C.; means of two determinations; read-out: Ki[nM]hα5
Procedure: The affinity of compounds at GABA A receptor subtypes was measured by competition for [3H]flumazenil (85 Ci/mmol; Roche) binding to HEK293 cells expressing rat (stably transfected) or human (transiently transfected) receptors of composition α1β3γ2, α2β3γ2, α3β3γ2 and α5β3γ2.
Cell pellets were suspended in Krebs-tris buffer (4.8 mM KCl, 1.2 mM CaCl2, 1.2 mM MgCl2, 120 mM NaCl, 15 mM Tris; pH 7.5; binding assay buffer), homogenized by polytron for ca. 20 sec on ice and centrifuged for 60 min at 4° C. (50000 g; Sorvall, rotor: SM24=20000 rpm). The cell pellets were resuspended in Krebs-tris buffer and homogenized by polytron for ca. 15 sec on ice. Protein was measured (Bradford method, Bio-Rad) and aliquots of 1 mL were prepared and stored at −80° C.
Radioligand binding assays were carried out in a volume of […] (96-well plates) which contained […] of cell membranes, [3H]flumazenil at a concentration of 1 nM for α1, α2, α3 subunits and 0.5 nM for α5 subunits and the test compound in the range of […]. Nonspecific binding was defined by 10^−5 M diazepam and typically represented less than 5% of the total binding. Assays were incubated to equilibrium for 1 hour at 4° C. and harvested onto GF/C uni-filters (Packard) by filtration using a Packard harvester and washing with ice-cold wash buffer 50 mM Tris; pH 7.5). After drying, filter-retained radioactivity was detected by liquid scintillation counting. Ki values were calculated using Excel-Fit (Microsoft) and are the means of two determinations.

Point of comparison: Cc1onc(-c2ccccc2)c1-c1cn2ccc(C(=O)NCc3ccncc3)cc2n1 [Example 22, 2-(5-Methyl-3-phenyl-isoxazol-4-yl)-imidazo[1,2-a]pyridine-7-carboxylic acid (pyridin-4-ylmethyl)-amide], Ki 199 nM. Against it:
- C#CCNC(=O)c1ccc2nc(-c3c(-c4ccccc4)noc3C)cn2c1 [Example 32, 2-(5-Methyl-3-phenyl-isoxazol-4-yl)-imidazo[1,2-a]pyridine-6-carboxylic acid prop-2-ynylamide] — 4.5-fold lower, 44.5 nM
- 2-(5-Methyl-3-phenyl-isoxazol-4-yl)-imidazo[1,2-a]pyridine-6-carboxylic acid (3-morpholin-4-yl-propyl)-amide [Example 39] — within 1.5-fold, 190 nM
- c1ccc(-c2noc(C3CC3)c2-c2cn3ccccc3n2)cc1 [Example 68, 2-(5-Cyclopropyl-3-phenyl-isoxazol-4-yl)-imidazo[1,2-a]pyridine] — 36-fold lower, 5.5 nM
- C#Cc1ccn2cc(-c3c(-c4ccccc4)noc3C)nc2c1 [Example 45, 7-Ethynyl-2-(5-methyl-3-phenyl-isoxazol-4-yl)-imidazo[1,2-a]pyridine] — within 1.5-fold, 189 nM
- CCc1ccn2cc(-c3c(-c4ccccc4)noc3C)nc2c1 [Example 9, 7-Ethyl-2-(5-methyl-3-phenyl-isoxazol-4-yl)-imidazo[1,2-a]pyridine] — 2-fold lower, 101 nM
- Cc1onc(-c2ccccc2)c1-c1cn2cc(C(=O)NCc3cccnc3)ccc2n1 [Example 41, 2-(5-Methyl-3-phenyl-isoxazol-4-yl)-imidazo[1,2-a]pyridine-6-carboxylic acid (pyridin-3-ylmethyl)-amide] — 4.8-fold lower, 41.2 nM
- Cc1onc(-c2ccccc2)c1-c1cn2ccc(C(=O)NC3CCCC3)cc2n1 [Example 15, 2-(5-Methyl-3-phenyl-isoxazol-4-yl)-imidazo[1,2-a]pyridine-7-carboxylic acid cyclopentylamide] — within 1.5-fold, 200 nM
- Cc1onc(-c2ccccc2)c1-c1cn2cc(N3CCC3=O)ccc2n1 [Example 62, 1-[2-(5-Methyl-3-phenyl-isoxazol-4-yl)-imidazo[1,2-a]pyridin-6-yl]-azetidin-2-one] — 7.4-fold lower, 27 nM
- Cc1onc(-c2ccccc2)c1-c1cn2cc(NC(=O)c3cccnc3)ccc2n1 [Example 61, N-[2-(5-Methyl-3-phenyl-isoxazol-4-yl)-imidazo[1,2-a]pyridin-6-yl]-nicotinamide] — 21-fold lower, 9.4 nM
- Cc1onc(-c2ccccc2)c1-c1cn2cccc(O)c2n1 [Example 5, 2-(5-Methyl-3-phenyl-isoxazol-4-yl)-imidazo[1,2-a]pyridin-8-ol] — 9.9-fold lower, 20.2 nM
- Cc1onc(-c2ccccc2)c1-c1cn2cc(NC(=O)CC3CC3)ccc2n1 [Example 55, 2-Cyclopropyl-N-[2-(5-methyl-3-phenyl-isoxazol-4-yl)-imidazo[1,2-a]pyridin-6-yl]-acetamide] — 5.2-fold lower, 38.4 nM
- Cc1onc(-c2ccccc2)c1-c1cn2cc(NC(=O)c3ccccc3)ccc2n1 [Example 60, N-[2-(5-Methyl-3-phenyl-isoxazol-4-yl)-imidazo[1,2-a]pyridin-6-yl]-benzamide] — 6.5-fold lower, 30.7 nM
- Cc1onc(-c2ccccc2)c1-c1cn2cc(C(=O)NCCO)ccc2n1 [Example 36, 2-(5-Methyl-3-phenyl-isoxazol-4-yl)-imidazo[1,2-a]pyridine-6-carboxylic acid (2-hydroxy-ethyl)-amide] — 3.3-fold lower, 59.8 nM
- Cc1onc(-c2ccccc2)c1-c1cn2cccc(OCc3ccccc3)c2n1 [Example 6, 8-Benzyloxy-2-(5-methyl-3-phenyl-isoxazol-4-yl)-imidazo[1,2-a]pyridine] — 8.7-fold lower, 23 nM
- Cc1onc(-c2ccccc2)c1-c1cn2cc(-n3ccnc3)ccc2n1 [Example 66, 6-Imidazol-1-yl-2-(5-methyl-3-phenyl-isoxazol-4-yl)-imidazo[1,2-a]pyridine] — 3.5-fold lower, 57.4 nM
- Cc1onc(-c2ccccc2)c1-c1cn2cccc(Br)c2n1 [Example 4, 8-Bromo-2-(5-methyl-3-phenyl-isoxazol-4-yl)-imidazo[1,2-a]pyridine] — within 1.5-fold, 146 nM
- Cc1onc(-c2ccccc2)c1C(=O)COc1cccn2cc(-c3c(-c4ccccc4)noc3C)nc12 [Example 7, 1-(5-Methyl-3-phenyl-isoxazol-4-yl)-2-[2-(5-methyl-3-phenyl-isoxazol-4-yl)-imidazo[1,2-a]pyridin-8-yloxy]-ethanone] — 1.6-fold lower, 126 nM
- Cc1onc(-c2ccccc2)c1-c1cn2ccc(NC(=O)C3CC3)cc2n1 [Example 48, Cyclopropanecarboxylic acid [2-(5-methyl-3-phenyl-isoxazol-4-yl)-imidazo[1,2-a]pyridin-7-yl]-amide] — 2.5-fold lower, 79.4 nM
- Cc1onc(-c2ccccc2)c1-c1cn2cc(C(=O)NC3CCCC3)ccc2n1 [Example 35, 2-(5-Methyl-3-phenyl-isoxazol-4-yl)-imidazo[1,2-a]pyridine-6-carboxylic acid cyclopentylamide] — 13-fold lower, 15.8 nM
- Cc1onc(-c2ccccc2)c1-c1cn2cc(NC(=O)C3CC3)ccc2n1 [Example 57, Cyclopropanecarboxylic acid [2-(5-methyl-3-phenyl-isoxazol-4-yl)-imidazo[1,2-a]pyridin-6-yl]-amide] — 9.6-fold lower, 20.8 nM
- Cc1onc(-c2ccccc2)c1-c1cn2cc(C(=O)NC3CC3)ccc2n1 [Example 33, 2-(5-Methyl-3-phenyl-isoxazol-4-yl)-imidazo[1,2-a]pyridine-6-carboxylic acid cyclopropylamide] — 8.4-fold lower, 23.6 nM
- Cc1onc(-c2ccccc2)c1-c1cn2cc(C(=O)NCCN3CCOCC3)ccc2n1 [Example 38, 2-(5-Methyl-3-phenyl-isoxazol-4-yl)-imidazo[1,2-a]pyridine-6-carboxylic acid (2-morpholin-4-yl-ethyl)-amide] — within 1.5-fold, 174 nM
- Cc1onc(-c2ccccc2)c1-c1cn2cc(Br)ccc2n1 [Example 27, 6-Bromo-2-(5-methyl-3-phenyl-isoxazol-4-yl)-imidazo[1,2-a]pyridine] — 1.6-fold lower, 121 nM
- Cc1onc(-c2ccccc2)c1-c1cn2ccc(C(=O)NCc3ccco3)cc2n1 [Example 23, 2-(5-Methyl-3-phenyl-isoxazol-4-yl)-imidazo[1,2-a]pyridine-7-carboxylic acid (furan-2-ylmethyl)-amide] — within 1.5-fold, 183 nM
- Cc1onc(-c2ccccc2)c1-c1cn2cc(NC(=O)C3CCCC3)ccc2n1 [Example 59, Cyclopentanecarboxylic acid [2-(5-methyl-3-phenyl-isoxazol-4-yl)-imidazo[1,2-a]pyridin-6-yl]-amide] — 3.6-fold lower, 54.7 nM
- Cc1onc(-c2ccccc2)c1-c1cn2ccc(C(=O)NCCO)cc2n1 [Example 16, 2-(5-Methyl-3-phenyl-isoxazol-4-yl)-imidazo[1,2-a]pyridine-7-carboxylic acid (2-hydroxy-ethyl)-amide] — 1.7-fold lower, 114 nM
- Cc1onc(-c2ccccc2)c1-c1cn2cccc(Cl)c2n1 [Example 3, 8-Chloro-2-(5-methyl-3-phenyl-isoxazol-4-yl)-imidazo[1,2-a]pyridine] — 1.6-fold lower, 126 nM
- Cc1onc(-c2ccccc2)c1-c1cn2cc(-n3cccc3)ccc2n1 [Example 64, 2-(5-Methyl-3-phenyl-isoxazol-4-yl)-6-pyrrol-1-yl-imidazo[1,2-a]pyridine] — 2.7-fold lower, 73.2 nM
- Cc1onc(-c2ccccc2)c1-c1cn2ccc(NC(=O)C3CCCC3)cc2n1 [Example 50, Cyclopentanecarboxylic acid [2-(5-methyl-3-phenyl-isoxazol-4-yl)-imidazo[1,2-a]pyridin-7-yl]-amide] — 2.3-fold lower, 85.9 nM
- Brc1ccc2nc(-c3c(-c4ccccc4)noc3C3CC3)cn2c1 [Example 69, 6-Bromo-2-(5-cyclopropyl-3-phenyl-isoxazol-4-yl)-imidazo[1,2-a]pyridine] — 28-fold lower, 7.13 nM
- Cc1onc(-c2ccccc2)c1-c1cn2ccc(C(=O)NCC3CC3)cc2n1 [Example 11, 2-(5-Methyl-3-phenyl-isoxazol-4-yl)-imidazo[1,2-a]pyridine-7-carboxylic acid cyclopropylmethyl-amide] — within 1.5-fold, 178 nM
- Cc1onc(-c2ccccc2)c1-c1cn2cc(N)ccc2n1 [Example 54, 2-(5-Methyl-3-phenyl-isoxazol-4-yl)-imidazo[1,2-a]pyridin-6-ylamine] — 2.3-fold lower, 88.1 nM
- Cc1onc(-c2ccccc2)c1-c1cn2cc(NC(=O)C3CCC3)ccc2n1 [Example 58, Cyclobutanecarboxylic acid [2-(5-methyl-3-phenyl-isoxazol-4-yl)-imidazo[1,2-a]pyridin-6-yl]-amide] — 7.1-fold lower, 28.2 nM
- C#Cc1ccc2nc(-c3c(-c4ccccc4)noc3C)cn2c1 [Example 53, 6-Ethynyl-2-(5-methyl-3-phenyl-isoxazol-4-yl)-imidazo[1,2-a]pyridine] — within 1.5-fold, 164 nM
- Cc1onc(-c2ccccc2)c1-c1cn2cc(F)ccc2n1 [Example 25, 6-Fluoro-2-(5-methyl-3-phenyl-isoxazol-4-yl)-imidazo[1,2-a]pyridine] — within 1.5-fold, 154 nM
- Cc1ccc2nc(-c3c(-c4ccccc4)noc3C)cn2c1 [Example 24, 6-Methyl-2-(5-methyl-3-phenyl-isoxazol-4-yl)-imidazo[1,2-a]pyridine] — 6-fold lower, 33.1 nM
- Cc1onc(-c2ccccc2)c1-c1cn2cc(Cl)ccc2n1 [Example 26, 6-Chloro-2-(5-methyl-3-phenyl-isoxazol-4-yl)-imidazo[1,2-a]pyridine] — 1.8-fold lower, 110 nM
